Common to all, as to format: binding
Test [1] has as its target T1, SIN3A-interacting proteins MAX, MNT and MXI1 (Homo sapiens, UniProt Q96ST3).
T1 construct: expressed in transfected cells; host or cells: SILAC HEK 293T
Briefly: ABPP-SILAC IP experiment for SIN3A interacting proteins. Conditions: 21 50 μM. Here is the method:
(§1) ABPP-SILAC IP experiment for SIN3A interacting proteins. All SILAC experiments were performed using the isotopically labeled human HEK 293T cell line generated by 8 passages in either light (100 μg ml^−1 each of L-arginine and L-lysine) or heavy (100 μg ml^−1 each of [^13C6^15N4]L-arginine and [^13C6^15N2]L-lysine) SILAC DMEM media (Thermo Scientific) supplemented with 10% dialyzed fetal calf serum, penicillin, streptomycin and glutamine. 2×10^5 SILAC HEK 293T cells were plated in 6 cm dishes in either heavy or light labeled SILAC media. Cells were transfected the next day with 1 μg of FLAG-GFP, or FLAG-SIN3A wild type, K155R, or K155W constructs as indicated. After 48 hours, cells were rinsed with ice-cold PBS and suspended in cold IP-lysis buffer (0.5% Chaps, 50 mM Hepes pH 7.4, 150 mM NaCl, and EDTA-free protease inhibitors and phosphatase inhibitors (Roche)) by gentle sonication. Samples were rotated for 30 minutes at 4° C. to complete lysis. For compound treatment experiments, 50 μM (final concentration) of 21 was added to samples prior to rotation. Samples were clarified by centrifugation for 1 minute at 16,000 rpm, and protein concentration was measured using the DC Protein Assay kit (Bio-Rad). Samples were normalized to 2 mg/mL by addition of cold IP-lysis buffer. 25 μL of anti-FLAG-M2 beads was added to the clarified supernatant and incubated for 3 h while rotating at 4° C. Beads were washed three times with cold PBS, and then eluted with 40 μL of […] for 10 min at 65° C. […] LC-MS spectra were collected and analyzed as described above with the following modifications. […] A list of all proteins enriched preferentially by SIN3A was generated from a comparison of SIN3A wild type vs GFP immunoprecipitations, including all proteins with at least two distinct quantified peptide sequences and a median ratio greater than or equal to 5 (R>5). […] Furthermore, if there were at least two quantified unique peptides, the median ratio of each protein's unique peptides (not occurring in any other human protein) were reported.

The next test concerns the target T2, TGIF2-SIN3A interaction (Homo sapiens, UniProt Q96ST3).
T2 construct: expressed in transfected cells; host or cells: SILAC HEK 293T
Described as above. Particulars: 21 50 μM. Here is the method:
as §1

For a further test, the target named is T3, TGIF1-SIN3A interaction (Homo sapiens, UniProt Q96ST3).
T3 construct: expressed in transfected cells; host or cells: SILAC HEK 293T
T3 sequence (Q96ST3 1-400): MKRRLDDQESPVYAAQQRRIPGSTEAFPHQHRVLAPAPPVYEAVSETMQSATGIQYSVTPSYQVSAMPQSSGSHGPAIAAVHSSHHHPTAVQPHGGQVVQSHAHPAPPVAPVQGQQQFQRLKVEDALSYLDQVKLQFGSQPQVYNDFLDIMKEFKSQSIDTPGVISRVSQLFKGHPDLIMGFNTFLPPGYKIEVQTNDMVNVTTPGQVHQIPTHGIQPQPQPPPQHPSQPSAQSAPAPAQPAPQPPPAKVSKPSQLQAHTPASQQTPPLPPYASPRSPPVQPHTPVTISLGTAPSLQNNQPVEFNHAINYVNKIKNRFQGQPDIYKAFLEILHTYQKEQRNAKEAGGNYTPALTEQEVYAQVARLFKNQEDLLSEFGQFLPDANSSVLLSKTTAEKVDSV
Described as above. Particulars: 21 50 μM. As for the experimental part:
as §1

For test [2], the target named is T4, interaction between SIN3A and TGIF2 (Homo sapiens, UniProt Q96ST3).
T4 construct: flag-SIN3A or the indicated Flag-SIN3A mutants (a.a. 1-400), or Flag-GFP, were co-expressed in HEK 293T with Myc-TGIF2; expressed in transfected cells; host or cells: HEK 293T
T4 sequence (Q96ST3 1-400): as above
Briefly: Co-IP experiment, anti-Myc western blot. Conditions: anti-Myc blotting. Here is the method:
Co-IP experiment for the interaction between SIN3A and TGIF1 and TGIF2. 6 cm dishes of HEK 293T cells were transfected at 40% confluency with 600 ng of FLAG-GFP, FLAG-SIN3A WT, K155W, or K155R construct, and 600 ng of MYC-TGIF1 or MYC-TGIF2 as indicated. After 48 hours, cells were lysed and enriched as described above. Following elution in 40 μL urea, 15 μL of loading buffer was added to samples. 15 μL of both input (10%) and outputs were loaded onto an SDS-PAGE gel.
Western blotting. Proteins were resolved by SDS-PAGE (3 h, 300 V) and transferred to nitrocellulose membranes (90 min, 60 V), blocked with 5% milk in TBS-T and probed with the indicated antibodies in 5% milk in TBS-T. The primary antibodies and the dilutions used are as follows: anti-Flag (Sigma Aldrich, F1804, 1:3,000), anti-Myc (Cell Signalling, 2272S, 1:5,000), anti-actin (Cell Signaling, 3700, 1:3,000) and anti-GAPDH (Santa Cruz, 32233, 1:10,000). Blots were incubated with primary antibodies overnight at 4° C. with rocking and were then washed (3×5 min, TBS-T) and incubated with secondary antibodies (LICOR, IRDye 800CW or IRDye 680LT, 1:10,000) for 1 h at ambient temperature. Blots were further washed (3×5 min, TBST) and visualized on a LICOR Odyssey Scanner. Relative band intensities were quantified using ImageJ software.
In general terms: Immunoblotting shows a protein as a band on a membrane.

T2 sequence (Q96ST3 1-400): as above
T1 sequence (Q96ST3 1-400): as above

On to `O=C(Oc1c(F)c(F)c(F)c(F)c1F)c1cc(C(F)(F)F)cc(C(F)(F)F)c1` [fragment 21, Pentafluorophenyl 3,5-bis(trifluoromethyl)benzoate], for which, in test [1], the “effect on co-immunoprecipitation of MAX, MNT and MXI1 with WT-SIN3A” value is “not affected”. Further, the “effect on TGIF2-SIN3A interaction” value at TGIF2-SIN3A interaction is reported as “marginal effect”. Moreover, the “effect on TGIF1-SIN3A interaction” value on TGIF1-SIN3A interaction is “strongly blocked the TGIF1-SIN3A interaction”. Further, in test [2], the “co-immunoprecipitation of TGIF2 with SIN3A” value is reported as “partial blockade”.

Values taken from US20210255193A1, “LYSINE REACTIVE PROBES AND USES THEREOF” (The Scripps Research Institute, priority 2017, published 2021).
